Reference: PubChem BioAssay AID248 (DTP/NCI, 2004)
Values joined by “and” are separate entries in the source; they are usually repeats but may differ in a detail not shown here. Equal values may be shown once. Toxic doses and inconclusive results are not listed.

System: L1210 leukemia ip in BDF1 mice, survival T/C
Experiment: NCI In Vivo Anticancer Drug Screen. Data for tumor model L1210 Leukemia (intraperitoneal) in B6D2F1 (BDF1) mice
Details: endpoint: mean survival time, higher = longer survival
Summary of the method: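 Survival endpoint. Drug-treated group vs vehicle group, expressed as T divided by C. Tumor passaged by transplantation.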

`c1nc(SSc2ncnc3nc[nH]c23)c2[nH]cnc2n1` was tested, and the T/C (dose: 0.1 mg/kg/injection, schedule: Q04DX003 (ip), vehicle: saline) was 97 % of control, the T/C (dose: 0.12 mg/kg/injection, schedule: Q04DX003 (ip), vehicle: saline) was 119 % of control and the T/C (dose: 0.2 mg/kg/injection, schedule: Q04DX003 (ip), vehicle: saline) was 119 % of control. The T/C (dose: 0.25 mg/kg/injection, schedule: Q04DX003 (ip), vehicle: saline) was 117 % of control, the T/C (dose: 0.35 mg/kg/injection, schedule: Q01DX009 (ip), vehicle: saline) was 100 % of control and the T/C (dose: 0.5 mg/kg/injection, schedule: Q04DX003 (ip), vehicle: saline) was 120 % of control. For the same compound, the T/C (dose: 0.8 mg/kg/injection, schedule: Q01DX009 (ip), vehicle: saline) was 152 % of control, the T/C (dose: 0.8 mg/kg/injection, schedule: Q04DX003 (ip), vehicle: saline with Tween-80) was 98 % of control and the T/C (dose: 1.6 mg/kg/injection, schedule: Q04DX003 (ip), vehicle: saline with Tween-80) was 106 % of control. The T/C (dose: 3.0 mg/kg/injection, schedule: Q04DX003 (ip), vehicle: saline) was 239 % of control, the T/C (dose: 3.08 mg/kg/injection, schedule: Q01DX001 (ip), vehicle: saline with Tween-80) was 121 % of control and the T/C (dose: 3.25 mg/kg/injection, schedule: Q04DX003 (ip), vehicle: saline with Tween-80) was 113 % of control. For the same compound, the T/C (dose: 5.5 mg/kg/injection, schedule: Q04DX003 (ip), vehicle: Klucel (hydroxypropylcellulose) (HPC)) was 121 % of control, the T/C (dose: 6.0 mg/kg/injection, schedule: Q04DX003 (ip), vehicle: saline) was 112 % of control and the T/C (dose: 7.5 mg/kg/injection, schedule: Q04DX003 (ip), vehicle: saline) was 189 % of control. The T/C (dose: 10.0 mg/kg/injection, schedule: Q01DX001 (ip), vehicle: saline) was 118 % of control, the T/C (dose: 10.0 mg/kg/injection, schedule: Q01DX009 (ip), vehicle: saline) was 169 % of control and the T/C (dose: 12.0 mg/kg/injection, schedule: Q01DX001 (ip), vehicle: saline) was 103 % of control. For the same compound, the T/C (dose: 12.0 mg/kg/injection, schedule: Q04DX003 (ip), vehicle: saline) was 154 % of control, the T/C (dose: 15.0 mg/kg/injection, schedule: Q01DX009 (ip), vehicle: saline) was 154 % of control and the T/C (dose: 15.0 mg/kg/injection, schedule: Q04DX003 (ip), vehicle: saline) was 159 % of control. For the same compound, the T/C (dose: 25.0 mg/kg/injection, schedule: Q04DX003 (ip), vehicle: saline) was 151 % of control, the T/C (dose: 26.0 mg/kg/injection, schedule: Q04DX003 (ip), vehicle: saline with Tween-80) was 157 % of control and the T/C (dose: 29.7 mg/kg/injection, schedule: Q04DX003 (ip), vehicle: saline) was 106 % of control. For the same compound, the T/C (dose: 30.0 mg/kg/injection, schedule: Q04DX003 (ip), vehicle: saline) was 90 % of control, the T/C (dose: 33.0 mg/kg/injection, schedule: Q04DX003 (ip), vehicle: Klucel (hydroxypropylcellulose) (HPC)) was 120 % of control and the T/C (dose: 35.0 mg/kg/injection, schedule: Q01DX009 (ip), vehicle: saline with Tween-80) was 163 % of control. The T/C (dose: 35.0 mg/kg/injection, schedule: Q04DX003 (ip), vehicle: Klucel (hydroxypropylcellulose) (HPC)) was 198 % of control, the T/C (dose: 39.0 mg/kg/injection, schedule: Q04DX003 (ip), vehicle: saline with Tween-80) was 172 % of control and the T/C (dose: 44.0 mg/kg/injection, schedule: Q01DX009 (ip), vehicle: saline) was 100 % of control. For the same compound, the T/C (dose: 44.0 mg/kg/injection, schedule: Q04DX003 (ip), vehicle: saline) was 202 % of control, the T/C (dose: 50.0 mg/kg/injection, schedule: Q01DX009 (ip), vehicle: saline) was 106 % of control and the T/C (dose: 50.0 mg/kg/injection, schedule: Q04DX003 (ip), vehicle: Klucel (hydroxypropylcellulose) (HPC)) was 152 % of control and 209 % of control. The T/C (dose: 50.0 mg/kg/injection, schedule: Q04DX003 (ip), vehicle: saline) was 123 % of control and 203 % of control, the T/C (dose: 52.0 mg/kg/injection, schedule: Q04DX003 (ip), vehicle: saline with Tween-80) was 168 % of control and the T/C (dose: 63.0 mg/kg/injection, schedule: Q01DX Z (ip), vehicle: saline) was 95 % of control. For the same compound, the T/C (dose: 66.0 mg/kg/injection, schedule: Q01DX001 (ip), vehicle: saline) was 157 % of control, the T/C (dose: 66.0 mg/kg/injection, schedule: Q04DX003 (ip), vehicle: saline) was 216 % of control and the T/C (dose: 67.5 mg/kg/injection, schedule: Q04DX003 (ip), vehicle: saline) was 106 % of control. The T/C (dose: 70.0 mg/kg/injection, schedule: Q01DX009 (ip), vehicle: saline with Tween-80) was 93 % of control, the T/C (dose: 70.0 mg/kg/injection, schedule: Q04DX003 (ip), vehicle: saline) was 178 % of control and the T/C (dose: 100.0 mg/kg/injection, schedule: Q01DX001 (ip), vehicle: saline) was 155 % of control. For the same compound, the T/C (dose: 100.0 mg/kg/injection, schedule: Q04DX003 (ip), vehicle: Klucel (hydroxypropylcellulose) (HPC)) was 124 % of control, the T/C (dose: 140.0 mg/kg/injection, schedule: Q04DX003 (ip), vehicle: saline) was 103 % of control and the T/C (dose: 200.0 mg/kg/injection, schedule: Q04DX003 (ip), vehicle: saline) was 89 % of control.
In the case of `O=C(/C(=N\N=C\c1c(O)ccc2ccccc12)c1ccccc1)c1ccccc1`, the T/C (dose: 100.0 mg/kg/injection, schedule: Q04DX003 (ip), vehicle: saline with Tween-80) is reported as 96 % of control, the T/C (dose: 200.0 mg/kg/injection, schedule: Q04DX003 (ip), vehicle: saline with Tween-80) is reported as 98 % of control and the T/C (dose: 400.0 mg/kg/injection, schedule: Q04DX003 (ip), vehicle: saline with Tween-80) is reported as 94 % of control.
`O=C1NC(=O)C2C3C(C(O)(c4ccccc4)c4ccccn4)=CC(/C3=C(\c3ccccc3)c3ccccn3)C12` (centres undefined) was tested, and the T/C (dose: 0.5 mg/kg/injection, schedule: Q01DX010 (ip), vehicle: saline) was 101 % of control, the T/C (dose: 1.0 mg/kg/injection, schedule: Q01DX010 (ip), vehicle: saline) was 93 % of control and the T/C (dose: 2.0 mg/kg/injection, schedule: Q01DX010 (ip), vehicle: saline) was 101 % of control. For the same compound, the T/C (dose: 2.0 mg/kg/injection, schedule: Q01DX010 (oral), vehicle: saline) was 96 % of control, the T/C (dose: 4.0 mg/kg/injection, schedule: Q01DX010 (ip), vehicle: saline) was 93 % of control and the T/C (dose: 4.0 mg/kg/injection, schedule: Q01DX010 (oral), vehicle: saline) was 96 % of control. For the same compound, the T/C (dose: 8.0 mg/kg/injection, schedule: Q01DX010 (oral), vehicle: saline) was 96 % of control, the T/C (dose: 16.0 mg/kg/injection, schedule: Q01DX010 (oral), vehicle: saline) was 96 % of control and the T/C (dose: 100.0 mg/kg/injection, schedule: Q01DX001 (ip), vehicle: carboxymethylcellulose (CMC)) was 98 % of control. The T/C (dose: 200.0 mg/kg/injection, schedule: Q01DX001 (ip), vehicle: carboxymethylcellulose (CMC)) was 102 % of control and the T/C (dose: 400.0 mg/kg/injection, schedule: Q01DX001 (ip), vehicle: carboxymethylcellulose (CMC)) was 104 % of control.
